According to ChEMBL document CHEMBL1201862, “PubChem BioAssay data set” (2004):
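Five compound concentrations were applied to cells in 96-well plates for 48 hours; endpoints were derived by simple linear interpolation of the resulting dose-response curve. GI50 is the concentration that inhibits growth by half.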 The source made the active and inactive calls. Cut-off read from the data, not from the text of the source: active = GI50 up to about 1.1 µM and inactive = higher.

Columns and labels:
Assay in all cases: NCI tumour cell line growth inhibition, 48 h
[1] = system: TK-10
[2] = system: SK-MEL-2
[3] = system: PC-3
[4] = system: SK-MEL-28
[5] = system: SW-620
[6] = system: UO-31
[7] = system: OVCAR-8
[8] = system: SK-OV-3
[9] = system: HOP-62
[10] = system: CCRF-CEM
[11] = system: HCT-15
[12] = system: M14
[13] = system: K562
[14] = system: EKVX
[15] = system: MDA-MB-435
[16] = system: HOP-92
[17] = system: MDA-N
[18] = system: DU-145
[19] = system: NCI/ADR-RES
[20] = system: RXF 393
[21] = system: NCI-H23
[22] = system: T47D
[23] = system: U-251
[24] = system: HL-60
[25] = system: BT-549
[26] = system: HCC 2998
[27] = system: A498
[28] = system: LOX IMVI
[29] = system: SNB-19
[30] = system: NCI-H226
[31] = system: SN12C
[32] = system: SF-268
[33] = system: COLO 205
[34] = system: UACC-257
[35] = system: Hs-578T
[36] = system: KM12
[37] = system: MOLT-4
[38] = system: MCF7
[39] = system: UACC-62
[40] = system: HT-29
[41] = system: OVCAR-3
[42] = system: OVCAR-5
[43] = system: MDA-MB-231
[44] = system: 786-0
[45] = system: CAKI-1
[46] = system: ACHN
[47] = system: IGROV-1
[48] = system: SNB-75
[49] = system: OVCAR-4
[50] = system: HCT-116
[51] = system: SK-MEL-5
[52] = system: A549
[53] = system: NCI-H522
[54] = system: NCI-H460
[55] = system: RPMI-8226
[56] = system: Malme-3M
[57] = system: SR
[58] = system: SF-539
[59] = system: SF-295

## Cc1ccc2nc(N/N=C/c3sccc3C)cc(C)c2c1
[1]
  GI50: 29.1 µM (inactive)
[2]
  GI50: > 100 µM (inactive)
[3]
  GI50: 35 µM (inactive)
[4]
  GI50: > 100 µM (inactive)
[5]
  GI50: > 100 µM (inactive)
[6]
  GI50: > 100 µM (inactive)
[7]
  GI50: > 100 µM (inactive)
[8]
  GI50: 21.1 µM (inactive)
[9]
  GI50: 29.3 µM (inactive)
[10]
  GI50: > 100 µM (inactive)
[11]
  GI50: > 100 µM
[12]
  GI50: > 100 µM (inactive)
[13]
  GI50: > 100 µM (inactive)
[14]
  GI50: > 100 µM (inactive)
[15]
  GI50: > 100 µM (inactive)
[16]
  GI50: 35 µM (inactive)
[17]
  GI50: > 100 µM (inactive)
[18]
  GI50: > 100 µM (inactive)
[19]
  GI50: > 100 µM (inactive)
[20]
  GI50: 61.8 µM (inactive)
[21]
  GI50: > 100 µM (inactive)
[22]
  GI50: > 100 µM (inactive)
[23]
  GI50: 92.7 µM (inactive)
[24]
  GI50: 28.4 µM (inactive)
[25]
  GI50: > 100 µM (inactive)
[26]
  GI50: > 100 µM (inactive)
[27]
  GI50: > 100 µM (inactive)
[28]
  GI50: > 100 µM (inactive)
[29]
  GI50: 48.2 µM (inactive)
[30]
  GI50: > 100 µM (inactive)
[31]
  GI50: > 100 µM (inactive)
[32]
  GI50: > 100 µM (inactive)
[33]
  GI50: > 100 µM (inactive)
[34]
  GI50: > 100 µM (inactive)
[35]
  GI50: 83.2 µM (inactive)
[36]
  GI50: > 100 µM (inactive)
[37]
  GI50: > 100 µM (inactive)
[38]
  GI50: 25.3 µM (inactive)
[39]
  GI50: > 100 µM (inactive)
[40]
  GI50: 5.48 µM (inactive)
[41]
  GI50: > 100 µM (inactive)
[42]
  GI50: > 100 µM (inactive)
[43]
  GI50: 14.7 µM (inactive)
[44]
  GI50: 29.2 µM (inactive)
[45]
  GI50: > 100 µM (inactive)
[46]
  GI50: > 100 µM (inactive)
[47]
  GI50: 37.2 µM (inactive)
[48]
  GI50: 38.7 µM (inactive)
[49]
  GI50: 34.9 µM (inactive)
[50]
  GI50: 42.6 µM (inactive)
[51]
  GI50: 28.8 µM (inactive)
[52]
  GI50: 83.9 µM (inactive)

## O=c1c(C(c2ccc(/C=C/c3ccccc3)cc2)c2c(O)oc3ccccc3c2=O)c(O)oc2ccccc12
[1]
  GI50: 92.5 µM (inactive)
[2]
  GI50: 34.8 µM (inactive)
[3]
  GI50: 40.2 µM (inactive)
[4]
  GI50: 33.3 µM (inactive)
[5]
  GI50: 37.9 µM (inactive)
[6]
  GI50: 18.6 µM (inactive)
[7]
  GI50: 20.2 µM (inactive)
[9]
  GI50: 27.8 µM (inactive)
[10]
  GI50: 41.4 µM (inactive)
[11]
  GI50: 44 µM
[13]
  GI50: > 100 µM (inactive)
[14]
  GI50: 28.6 µM (inactive)
[15]
  GI50: 29 µM (inactive)
[16]
  GI50: 23.1 µM (inactive)
[17]
  GI50: 21.8 µM (inactive)
[18]
  GI50: 50.8 µM (inactive)
[19]
  GI50: 24.9 µM (inactive)
[21]
  GI50: 28.1 µM (inactive)
[22]
  GI50: 39.2 µM (inactive)
[23]
  GI50: 18.5 µM (inactive)
[24]
  GI50: 49.3 µM (inactive)
[25]
  GI50: 26.6 µM (inactive)
[53]
  GI50: 18.6 µM (inactive)
[26]
  GI50: 23.3 µM (inactive)
[27]
  GI50: 30.5 µM (inactive)
[28]
  GI50: 25.8 µM (inactive)
[29]
  GI50: 46.9 µM (inactive)
[30]
  GI50: 28.2 µM (inactive)
[54]
  GI50: 24.5 µM (inactive)
[31]
  GI50: 21.8 µM (inactive)
[32]
  GI50: 22.4 µM (inactive)
[33]
  GI50: 22.6 µM (inactive)
[34]
  GI50: 53.7 µM (inactive)
[35]
  GI50: 26.8 µM (inactive)
[36]
  GI50: 23 µM (inactive)
[37]
  GI50: 24.1 µM (inactive)
[39]
  GI50: 35.6 µM (inactive)
[40]
  GI50: 20.3 µM (inactive)
[41]
  GI50: 36 µM (inactive)
[43]
  GI50: 28.7 µM (inactive)
[44]
  GI50: 24.4 µM (inactive)
[45]
  GI50: 23 µM (inactive)
[46]
  GI50: 18.8 µM (inactive)
[55]
  GI50: 27.2 µM (inactive)
[56]
  GI50: 21.6 µM (inactive)
[47]
  GI50: 27.3 µM (inactive)
[48]
  GI50: 19.7 µM (inactive)
[49]
  GI50: 35.6 µM (inactive)
[50]
  GI50: 29.6 µM (inactive)
[51]
  GI50: 26.5 µM (inactive)

## COc1ccc(-c2cc(=O)c3c(OC)c(OC)c(OC)c(OC)c3o2)c(OC)c1
[1]
  GI50: 37.2 µM (inactive)
[2]
  GI50: 19.1 µM (inactive)
[4]
  GI50: 42.9 µM (inactive)
[5]
  GI50: 31.1 µM (inactive)
[6]
  GI50: 20.6 µM (inactive)
[7]
  GI50: 21.9 µM (inactive)
[8]
  GI50: 39.8 µM (inactive)
[9]
  GI50: 26.7 µM (inactive)
[10]
  GI50: 33.8 µM (inactive)
[57]
  GI50: > 100 µM (inactive)
[11]
  GI50: 25.6 µM
[12]
  GI50: 21 µM (inactive)
[13]
  GI50: 48.4 µM (inactive)
[14]
  GI50: 29.2 µM (inactive)
[15]
  GI50: 24.6 µM (inactive)
[16]
  GI50: 14 µM (inactive)
[17]
  GI50: 29.1 µM (inactive)
[18]
  GI50: 30.4 µM (inactive)
[19]
  GI50: 16.8 µM (inactive)
[20]
  GI50: 36.7 µM (inactive)
[21]
  GI50: 16.9 µM (inactive)
[22]
  GI50: 8.65 µM (inactive)
[23]
  GI50: 30.8 µM (inactive)
[24]
  GI50: 29.7 µM (inactive)
[25]
  GI50: 31 µM (inactive)
[53]
  GI50: 12.9 µM (inactive)
[26]
  GI50: 18.8 µM (inactive)
[27]
  GI50: 21.6 µM (inactive)
[28]
  GI50: 17.2 µM (inactive)
[29]
  GI50: 32.8 µM (inactive)
[30]
  GI50: 31 µM (inactive)
[58]
  GI50: 61.4 µM (inactive)
[54]
  GI50: 32.1 µM (inactive)
[31]
  GI50: 20.6 µM (inactive)
[59]
  GI50: 18.4 µM (inactive)
[32]
  GI50: 51.5 µM (inactive)
[33]
  GI50: 17.1 µM (inactive)
[34]
  GI50: 20 µM (inactive)
[35]
  GI50: 18 µM (inactive)
[37]
  GI50: 26.4 µM (inactive)
[38]
  GI50: 20.5 µM (inactive)
[39]
  GI50: 16 µM (inactive)
[40]
  GI50: 24.2 µM (inactive)
[41]
  GI50: 13.4 µM (inactive)
[42]
  GI50: 70.8 µM (inactive)
[43]
  GI50: 25.1 µM (inactive)
[44]
  GI50: 32.3 µM (inactive)
[45]
  GI50: 29.8 µM (inactive)
[46]
  GI50: 24.8 µM (inactive)
[55]
  GI50: 33 µM (inactive)
[56]
  GI50: 30.5 µM (inactive)
[47]
  GI50: 36.9 µM (inactive)
[48]
  GI50: 15.6 µM (inactive)
[49]
  GI50: 28.3 µM (inactive)
[50]
  GI50: 21.6 µM (inactive)
[51]
  GI50: 16 µM (inactive)
[52]
  GI50: 32.6 µM (inactive)
